Results on one molecule are retold here after patent publication US20260224758A1, “ALPHA-SYNUCLEIN BINDERS AND METHODS OF USE” (Merck Sharp & Dohme LLC, priority 2023, published 2026).

The target in assay [1] is human Parkinson's Disease tissue homogenates (Homo sapiens, UniProt P37840). The assay is described as follows: Hot saturation binding of [^3H]-2 in human PD cerebral cortex homogenates. The settings on record: PD Cortex (n = 5). On the procedure: (§1) To assess presence of alpha synucleinopathy (Lewy body, LB and Lewy neurites, LN) in the tested human brain samples, the adjacent human PD brain slices were used for Autoradiography (ARG) and Immunihistochemistry (1HC) studies. ARG was done using radio-labelled compounds which bind to LB and LN of PD brain sections. 1HC was performed with antibodies for LB & LN (LB509), Aβ (6E10) and p-tau (AT8). Tissue homogenate binding was performed using human PD brain homogenates of cerebral cortex. Human brains from donor without neurological disorder were used as control in the same study.
The frozen human brain samples of Parkinson's disease (PD) were provided by Banner Sun Health Institute (USA) and Sydney Brain Bank (Australia) through collaboration with Michael J Fox Foundation (MJFF). […]
[^3H]-2 was synthesized by Radio Compound Labelling Synthesis Group at Merck. […] Total binding was defined in the absence of competing compound, and non-displaceable binding was determined in the presence of 1 μM unlabeled self-block. […]
Incubation was carried out at 37° C. for 120 minutes, and then the assay samples were filtered onto GF/C filters using Skatron 12 well harvester, washing on setting 5-5-5 (~3×2 ml) ice cold buffer (Tris, pH 7.5). […] Add liquid scintillation fluid (2 mL Ultima Gold) into each vial, allow to soak into filters for 4 hours and counted in on Perkin Elmer Tri-Carb 2900TR for 1 minute. […]

Assay [2] addresses T1, alpha-synucleinopathy of PD brain (Homo sapiens, UniProt P37840).
T1 construct: They are post-mortem tissue from donors with clinical diagnosis of PD or non-PD; tissue Banner Sun Health Institute; Sydney Brain Bank; Analytic Biological Services Inc; Discovery Life Science; host or cells: human PD cerebral cortex homogenates (A4); human PD amygdala cryosections (A5)
In words: In vitro autoradiography of [^3H]-2 on PD brain sections with IHC comparison. The assay is classed as binding. The conditions noted are these: PD brain amygdala section, 3 nM radioligand. On the procedure:
as §1
The frozen human brain samples of Parkinson's disease (PD) were provided by Banner Sun Health Institute (USA) and Sydney Brain Bank (Australia) through collaboration with Michael J Fox Foundation (MJFF). Additional PD and non-PD brain samples were purchased from vendors (Analytic Biological Services Inc., ABS, and Discovery Life Science, DLS). […] Total binding of radioligand in a brain slice was defined in the absence of competitor, and non-displaceable binding (NDB) was determined in the presence of competitor (1.0 μM unlabeled selfblock). […] After three weeks exposure, the plates were scanned in Amersham Typhoon Imager, and the scanned images were analyzed using MCID 7.1 software. [^3H]-microscales (Amersham Biosciences, GE), were used for quantification of radioligand binding density. […]

In the case of `[3H]C([3H])([3H])OC[C@H]1CN(c2ncc(C=Cc3ccc(-n4ccnc4)nc3)cn2)CCN1c1ncccn1` [[^3H]-2, [^3H]-(R,E)-5-(2-(6-(1H-imidazol-1-yl)pyridin-3-yl)vinyl)-2-(3-(methoxymethyl)-4-(pyrimidin-2-yl)piperazin-1-yl)pyrimidine], the “Bmax” value in assay [1] amounted to 17.0 ± 5.2 nM. Besides, the “autoradiographic binding versus LB509 and AT8 immunoreactivity” value in assay [2] is on record as “specific binding”.
